Converted amounts (≈) assume the structure as drawn.
Experiments:
[1] = system: Salmonella typhimurium; assay: Bactericidal activity against Salmonella typhimurium ATCC 13311 incubated for 24 hrs followed by serial sub-cultivation and measured after 24 hrs by microdilution method; assay type: functional, Salmonella enterica subsp. enterica serovar Typhimurium
[2] = system: Bacillus cereus; assay: Antibacterial activity against Bacillus cereus after 24 hrs by microdilution method; assay type: functional
[3] = system: Micrococcus flavus; assay: Antibacterial activity against Micrococcus flavus ATCC 10240 after 24 hrs by microdilution method; assay type: functional; settings: ATCC 10240, 24 h
[4] = system: Micrococcus flavus; assay: Bactericidal activity against Micrococcus flavus ATCC 10240 incubated for 24 hrs followed by serial sub-cultivation and measured after 24 hrs by microdilution method; assay type: functional
[5] = system: Aspergillus versicolor; assay: Fungicidal activity against Aspergillus versicolor ATCC 11730 incubated for 72 hrs followed by serial sub-cultivation for 72 hrs and measured after 72 hrs by serial dilution method; assay type: functional
[6] = system: Staphylococcus aureus; assay: Bactericidal activity against Staphylococcus aureus ATCC 6538 incubated for 24 hrs followed by serial sub-cultivation and measured after 24 hrs by microdilution method; assay type: functional
[7] = system: Pseudomonas aeruginosa; assay: Antibacterial activity against Pseudomonas aeruginosa ATCC 27853 after 24 hrs by microdilution method; assay type: functional; settings: ATCC 27853, 24 h
[8] = system: Talaromyces funiculosus; assay: Fungicidal activity against Penicillium funiculosum ATCC 36839 incubated for 72 hrs followed by serial sub-cultivation for 72 hrs and measured after 72 hrs by serial dilution method; assay type: functional
[9] = system: Aspergillus ochraceus; assay: Fungicidal activity against Aspergillus ochraceus ATCC 12066 incubated for 72 hrs followed by serial sub-cultivation for 72 hrs and measured after 72 hrs by serial dilution method; assay type: functional
[10] = system: Pseudomonas aeruginosa; assay: Bactericidal activity against Pseudomonas aeruginosa ATCC 27853 incubated for 24 hrs followed by serial sub-cultivation and measured after 24 hrs by microdilution method; assay type: functional
[11] = system: Listeria monocytogenes; assay: Antibacterial activity against Listeria monocytogenes NCTC 7973 after 24 hrs by microdilution method; assay type: functional; settings: NCTC 7973, 24 h
[12] = system: Trichoderma viride; assay: Antifungal activity against Trichoderma viride IAM 5061 after 72 hrs by serial dilution method; assay type: functional; settings: IAM 5061, 72 h
[13] = system: Listeria monocytogenes; assay: Bactericidal activity against Listeria monocytogenes NCTC 7973 incubated for 24 hrs followed by serial sub-cultivation and measured after 24 hrs by microdilution method; assay type: functional
[14] = system: Aspergillus fumigatus; assay: Antifungal activity against Aspergillus fumigatus after 72 hrs by serial dilution method; assay type: functional
[15] = system: Trichoderma viride; assay: Fungicidal activity against Trichoderma viride IAM 5061 incubated for 72 hrs followed by serial sub-cultivation for 72 hrs and measured after 72 hrs by serial dilution method; assay type: functional
[16] = system: Aspergillus ochraceus; assay: Antifungal activity against Aspergillus ochraceus ATCC 12066 after 72 hrs by serial dilution method; assay type: functional; settings: ATCC 12066, 72 h
[17] = system: Aspergillus niger; assay: Antifungal activity against Aspergillus niger ATCC 6275 after 72 hrs by serial dilution method; assay type: functional; settings: ATCC 6275, 72 h
[18] = system: Aspergillus fumigatus; assay: Fungicidal activity against Aspergillus fumigatus incubated for 72 hrs followed by serial sub-cultivation for 72 hrs and measured after 72 hrs by serial dilution method; assay type: functional
[19] = system: Escherichia coli; assay: Antibacterial activity against Escherichia coli ATCC 35210 after 24 hrs by microdilution method; assay type: functional; settings: ATCC 35210, 24 h
[20] = system: Aspergillus niger; assay: Fungicidal activity against Aspergillus niger ATCC 6275 incubated for 72 hrs followed by serial sub-cultivation for 72 hrs and measured after 72 hrs by serial dilution method; assay type: functional
[21] = system: Penicillium ochrochloron; assay: Fungicidal activity against Penicillium ochrochloron ATCC 9112 incubated for 72 hrs followed by serial sub-cultivation for 72 hrs and measured after 72 hrs by serial dilution method; assay type: functional
[22] = system: Enterobacter cloacae; assay: Antibacterial activity against Enterobacter cloacae after 24 hrs by microdilution method; assay type: functional
[23] = system: Salmonella typhimurium; assay: Antibacterial activity against Salmonella typhimurium ATCC 13311 after 24 hrs by microdilution method; assay type: functional, Salmonella enterica subsp. enterica serovar Typhimurium; settings: Salmonella enterica, ATCC 13311, 24 h
[24] = system: Staphylococcus aureus; assay: Antibacterial activity against Staphylococcus aureus ATCC 6538 after 24 hrs by microdilution method; assay type: functional; settings: ATCC 6538, 24 h
[25] = system: Candida albicans; assay: Fungicidal activity against Candida albicans incubated for 72 hrs followed by serial sub-cultivation for 72 hrs and measured after 72 hrs by serial dilution method; assay type: functional
[26] = system: Penicillium ochrochloron; assay: Antifungal activity against Penicillium ochrochloron ATCC 9112 after 72 hrs by serial dilution method; assay type: functional; settings: ATCC 9112, 72 h
[27] = system: Escherichia coli; assay: Bactericidal activity against Escherichia coli ATCC 35210 incubated for 24 hrs followed by serial sub-cultivation and measured after 24 hrs by microdilution method; assay type: functional
[28] = system: Bacillus cereus; assay: Bactericidal activity against Bacillus cereus incubated for 24 hrs followed by serial sub-cultivation and measured after 24 hrs by microdilution method; assay type: functional
[29] = system: Candida albicans; assay: Antifungal activity against Candida albicans after 72 hrs by serial dilution method; assay type: functional
[30] = system: Enterobacter cloacae; assay: Bactericidal activity against Enterobacter cloacae incubated for 24 hrs followed by serial sub-cultivation and measured after 24 hrs by microdilution method; assay type: functional
[31] = system: Aspergillus versicolor; assay: Antifungal activity against Aspergillus versicolor ATCC 11730 after 72 hrs by serial dilution method; assay type: functional; settings: ATCC 11730, 72 h
[32] = system: Talaromyces funiculosus; assay: Antifungal activity against Penicillium funiculosum ATCC 36839 after 72 hrs by serial dilution method; assay type: functional; settings: ATCC 36839, 72 h

SMILES | MBC99.5 [1] | MIC [2] | MIC [3] | MBC99.5 [4] | MFC99.5 [5] | MBC99.5 [6] | MIC [7] | MFC99.5 [8] | MFC99.5 [9] | MBC99.5 [10] | MIC [11] | MIC [12] | MBC99.5 [13] | MIC [14] | MFC99.5 [15] | MIC [16] | MIC [17] | MFC99.5 [18] | MIC [19] | MFC99.5 [20] | also measured
O=C(Cc1nsc2ccccc12)NN1C(=O)CSC1c1c(F)cccc1Cl (stereo unspecified) | 36.7 ×10⁻² umol/ml | 147 µM (≈ 62 µg/mL) | 270 µM (≈ 114 µg/mL) | 36.7 ×10⁻² umol/ml | 9.8 ×10⁻² umol/ml | 19.6 ×10⁻² umol/ml | 270 µM (≈ 114 µg/mL) | 9.8 ×10⁻² umol/ml | 19.6 ×10⁻² umol/ml | 36.7 ×10⁻² umol/ml | 367 µM (≈ 155 µg/mL) | 38 µM (≈ 16 µg/mL) | 73.4 ×10⁻² umol/ml | 98 µM (≈ 41.3 µg/mL) | 4.9 ×10⁻² umol/ml | 98 µM (≈ 41.3 µg/mL) | 196 µM (≈ 82.7 µg/mL) | 19.6 ×10⁻² umol/ml | 270 µM (≈ 114 µg/mL) | 36.7 ×10⁻² umol/ml | MFC99.5 [21]: 9.8 ×10⁻² umol/ml; MIC [22]: 147 µM (≈ 62 µg/mL); MIC [23]: 196 µM (≈ 82.7 µg/mL); MIC [24]: 147 µM (≈ 62 µg/mL); MFC99.5 [25]: 9.8 ×10⁻² umol/ml; MIC [26]: 49 µM (≈ 20.7 µg/mL); MBC99.5 [27]: 36.7 ×10⁻² umol/ml; MBC99.5 [28]: 36.7 ×10⁻² umol/ml; MIC [29]: 49 µM (≈ 20.7 µg/mL); MBC99.5 [30]: 19.6 ×10⁻² umol/ml; MIC [31]: 49 µM (≈ 20.7 µg/mL); MIC [32]: 49 µM (≈ 20.7 µg/mL)
O=C(Cc1nsc2ccccc12)NN1C(=O)CSC1c1c(F)cccc1F (stereo unspecified) | 37 ×10⁻² umol/ml | 198 µM (≈ 80.3 µg/mL) | 272 µM (≈ 110 µg/mL) | 37 ×10⁻² umol/ml | 9.9 ×10⁻² umol/ml | 37 ×10⁻² umol/ml | 272 µM (≈ 110 µg/mL) | 9.9 ×10⁻² umol/ml | 9.9 ×10⁻² umol/ml | 37 ×10⁻² umol/ml | 543 µM (≈ 220 µg/mL) | 74 µM (≈ 30 µg/mL) | 74 ×10⁻² umol/ml | 296 µM (≈ 120 µg/mL) | 9.9 ×10⁻² umol/ml | 74 µM (≈ 30 µg/mL) | 148 µM (≈ 60 µg/mL) | 37 ×10⁻² umol/ml | 272 µM (≈ 110 µg/mL) | 19.8 ×10⁻² umol/ml | MFC99.5 [21]: 19.8 ×10⁻² umol/ml; MIC [22]: 198 µM (≈ 80.3 µg/mL); MIC [23]: 198 µM (≈ 80.3 µg/mL); MIC [24]: 198 µM (≈ 80.3 µg/mL); MFC99.5 [25]: 19.8 ×10⁻² umol/ml; MIC [26]: 148 µM (≈ 60 µg/mL); MBC99.5 [27]: 37 ×10⁻² umol/ml; MBC99.5 [28]: 37 ×10⁻² umol/ml; MIC [29]: 99 µM (≈ 40.1 µg/mL); MBC99.5 [30]: 37 ×10⁻² umol/ml; MIC [31]: 74 µM (≈ 30 µg/mL); MIC [32]: 74 µM (≈ 30 µg/mL)
O=C(Cc1nsc2ccccc12)NN1C(=O)CSC1c1ccc(Cl)cc1 (stereo unspecified) | 74.4 ×10⁻² umol/ml | 100 µM (≈ 40.4 µg/mL) | 273 µM (≈ 110 µg/mL) | 37.2 ×10⁻² umol/ml | 19.8 ×10⁻² umol/ml | 37.2 ×10⁻² umol/ml | 372 µM (≈ 150 µg/mL) | 19.8 ×10⁻² umol/ml | 19.8 ×10⁻² umol/ml | 74.4 ×10⁻² umol/ml | 744 µM (≈ 301 µg/mL) | 100 µM (≈ 40.4 µg/mL) | 111.6 ×10⁻² umol/ml | 372 µM (≈ 150 µg/mL) | 19.8 ×10⁻² umol/ml | 100 µM (≈ 40.4 µg/mL) | 198 µM (≈ 80 µg/mL) | 74.4 ×10⁻² umol/ml | 273 µM (≈ 110 µg/mL) | 37.2 ×10⁻² umol/ml | MFC99.5 [21]: 19.8 ×10⁻² umol/ml; MIC [22]: 570 µM (≈ 230 µg/mL); MIC [23]: 372 µM (≈ 150 µg/mL); MIC [24]: 198 µM (≈ 80 µg/mL); MFC99.5 [25]: 37.2 ×10⁻² umol/ml; MIC [26]: 100 µM (≈ 40.4 µg/mL); MBC99.5 [27]: 37.2 ×10⁻² umol/ml; MBC99.5 [28]: 19.8 ×10⁻² umol/ml; MIC [29]: 198 µM (≈ 80 µg/mL); MBC99.5 [30]: 74.4 ×10⁻² umol/ml; MIC [31]: 100 µM (≈ 40.4 µg/mL); MIC [32]: 144 µM (≈ 58.2 µg/mL)
